The structures appear in SMILES notation.

Holding throughout (format): in vivo
Assay [1] in a line: Masking bitterness of paracetamol, calibrated test panel, equibitter solution. As to conditions: for Masking effect (real): 5000 ppm paracetamol. The method, then:
The bitter masking effect against paracetamol was assayed. The anti-bittering effect was measured as a dose-response profile vs. a solution of paracetamol.
The following substances were assayed: NHDC alone, gamma-cyclodextrin alone and compositions comprising NHDC and gamma-cyclodextrin in a molar ratio 1:3 (Example B), 1.5:1 (Example C), 1:6 (Example D) and 1:10 (Example E).
For evaluating the masking effect of each substance, several aqueous solutions were prepared, each containing 5000 ppm of paracetamol and different concentrations of the tested substance, namely, 5, 25, 50, 75 and 100 ppm.
A calibrated test panel compared each solution with several solutions of paracetamol in water at different concentrations, and determined the equibitter paracetamol solution. The equibitter solution was calculated as the average of all the evaluations of the panel.
The masking effect was then calculated from the reference amount of paracetamol contained in each tested solution (5000 ppm) and the amount of paracetamol in the equibitter solution, using the following formula (Formula III): […]
For calculating the masking synergies between gamma-cyclodextrin and NHDC, first, for each amount of the combination (Examples A-E), using the molecular weight of each component, the amounts of gamma-cyclodextrin and NHDC contained therein were calculated. For example, 100 ppm of Example B contain 13.61 ppm of NHDC and 86.39 ppm of gamma-cyclodextrin. Then, the antibittering contribution of each component in the composition was calculated, on the basis of the data of Table 13. For example, 13.61 ppm of NHDC provide 9.44% masking effect and 86.39 ppm of gamma-cyclodextrin provide 5.46% masking effect (the antibittering effects for each specific concentration was calculated by interpolation of the data points in Table 13). Therefore, the expected masking effect is calculated as the sum of the contributions of each component. For example, the expected masking effect of 100 ppm of Example B is 14.90 (i.e., 9.44 plus 5.46).
Finally, the masking synergy is calculated using Formula IV: […]
The masking effect of Examples C (NHDC:gCD 1.5:1), D (NHDC:gCD 1:6) and E (NHDC:gCD 1:10) was also evaluated. Aqueous solutions were prepared, each one of them containing 5000 ppm of paracetamol and different concentrations of each one of the tested formulations Ex. C-E, namely, 25 and 50 ppm. Results are disclosed in Tables 15 to 17.

Assay [2] is described as follows: Sugar (HFCS) substitution in orange soft drink, triangular test by calibrated panel. As to conditions: orange soft drink sweetened with HFCS. The procedure: A reference orange soft drink sweetened with high fructose corn syrup (HFCS) was prepared, using the ingredients listed in Table 9 (Formula 1). All the percentages in the table are by weight.
For preparing the beverages, the following process was followed. The high fructose corn syrup was weighed in a 1 L beaker. The remaining minor ingredients (sodium benzoate, potassium sorbate, citric acid, orange soda colour and orange soda flavour) were separately weighed in small beakers, and water was added to each of the small beakers and mixed until solubilizing each ingredient. Once dissolved, all those minor ingredients were added to the 1 L beaker with the HFCS. The obtained solution was thoroughly mixed and water was added gradually to 1 Kg.
For assaying the possible substitution of HFCS with NHDC and with the composition of the present invention (Example B), a 0.1% mother solution of NHDC in water was prepared by gradually adding 0.1 g of NHDC to 99.9 g of water, mixing, and heating to 66° C. during 15 minutes until a yellowish solution was obtained; the solution was then left to cool to room temperature. […]
Maximum sugar substitution with NHDC was then determined by replacing increasing amounts of HFCS by NHDC and then passing the reference and the prototype through a triangular test by a calibrated panel.

Assay [3] can be described thus: Sugar substitution in sweetened dark chocolate, calibrated panel. From the text: The percentages in the table are expressed by weight.
The reference product (Formula 1 of Table 11) contained a commercial chocolate with 70% cacao content (Lindt®) and 6% of powdered sugar.
Along all the assays performed, the goal was to maximize the sucrose substitution while maintaining the same overall taste profile. A calibrated panel was not able to distinguish the reference from the different prototypes tested.
The method used for preparing the dark chocolate products of this assay was as follows. Firstly, 1% solution of NHDC in glycerol was prepared by gradually adding 1 g of NHDC to 99 g of glycerol, mixing and heating to 60° C. for 15 minutes, until a transparent solution is obtained. The solution was left to cool off to room temperature. The dark chocolate was weighed and heated to 45° C. and, when the chocolate was completely melted, powdered sugar was added and, optionally, also the 1% NHDC glycerol solution or the composition of Example B, and the mixture was then thoroughly mixed. The mixture was heated until reaching 45° C., then it was let to cool to 30° C., and then it was poured into molds (6 g/piece). The molds with the chocolate were put in the fridge for a quicker hardening.

Take `COc1ccc(CCC(=O)c2c(O)cc(O[C@@H]3O[C@H](CO)[C@@H](O)[C@H](O)[C@H]3O[C@@H]3O[C@@H](C)[C@H](O)[C@@H](O)[C@H]3O)cc2O)cc1O` [NHDC, 1-[4-[[2-O-(6-Deoxy-α-L-mannopyranosyl)-β-D-glucopyranosyl]oxy]-2,6-dihydroxyphenyl]-3-(3-hydroxy-4-methoxyphenyl)propan-1-one]: in assay [1] (5000 ppm paracetamol + 100 ppm tested substance), the Equibitter paracetamol solution was 3266.7 ppm. Also, the “Masking effect (real)” value is given as 6.00% in assay [1] (tested substance 5 ppm); 14.00% in assay [1] (tested substance 25 ppm); 15.33% in assay [1] (tested substance 50 ppm); 27.00% in assay [1] (tested substance 75 ppm); 34.67% in assay [1] (tested substance 100 ppm). Also, in assay [2], the “Amount needed to obtain 10% sugar substitution” value was 10 ppm. Besides, the “Maximum sugar substitution without any noticeable difference in a triangular test” value in assay [2] was found to be 10%. The “Amount used for the maximum sugar substitution” value in assay [3] is 3 ppm. Also, the “Maximum sugar substitution without changing the taste profile” value in assay [3] (reference with 6% powdered sugar) turned out to be 10%.

Source of the values: US20230054887A1, “SWEETENING AND TASTE-MASKING COMPOSITIONS, PRODUCTS AND USES THEREOF” (HEALTHTECH BIO ACTIVES, S.L.U., priority 2017, published 2023).
